In ChEMBL document CHEMBL1157539, “Thousands of chemical starting points for antimalarial lead identification” (Nature, 2010):

Tested on: Plasmodium falciparum
Test: GSK_TCMDC: Inhibition of Plasmodium falciparum 3D7 in whole erythrocytes, using parasite LDH activity as an index of growth.
Type: functional, organism-based
Conditions: Plasmodium falciparum, 3D7

Row | Compound | XC50 [nM]
1 | O=C(NC1CCC(CN2CCC(c3c[nH]c4ccccc34)CC2)CC1)c1cc(-c2ccccc2Cl)oc1C(F)(F)F (configuration not stated) | 771
2 | CCc1ccc(CN(CCCOc2cccc(CC(=O)NCc3c[nH]cn3)c2)Cc2ccc(-n3ccnc3)cc2)cc1 | 979
3 | c1cncc(Oc2ccc(Nc3ccnc4cc(-c5cccc(CNCCN6CCOCC6)c5)ccc34)cc2)c1 | 112
4 | O=C(/C=C/c1ccc(Cl)c(Cl)c1)N1CCC(CCN2CCC(c3nc4cc(O)ccc4[nH]3)CC2)CC1 | 344
5 | CC(=O)Nc1ccc2[nH]cc(C3CCN(CC4CCC(NC(=O)/C=C/c5ccccc5Cl)CC4)CC3)c2n1 (configuration not stated) | 364
6 | CC(C)n1ncc2c(C(=O)Nc3ccc(C#N)c(Cl)c3)cc(C3CC3)nc21 | 962
7 | Fc1ccc2c(NN=Cc3ccc(Cl)cc3)ccnc2c1 | 754
8 | Cc1ccc2ccncc2c1N | 697
9 | Cc1cc(C)c(C)c(OCCCON2C(=N)N=C(N)NC2(C)C)c1C | 3.2
10 | CCN(CC)CCCNc1ncc2c(-c3ccc(NC(=O)Nc4cc(C(F)(F)F)ccc4F)c(F)c3)nn(C)c2n1 | 272
11 | O=c1[nH]c2ccc(Nc3nccc(NCCc4ccccc4)n3)cc2[nH]1 | 1210
12 | CN1CCN(CCCN(Cc2ccc(-c3cccc(CNCc4ccc5c(c4)OCO5)c3)cc2)C(=O)NCCc2ccccc2)CC1 | 845
13 | CCN1C(c2ccc(Cl)cc2)C(CNCc2ccccc2O)CC1(C)CO (configuration not stated) | 311
14 | Cc1cccc2nc(-c3ccc(-c4cccc(NCc5cn6cccnc6n5)c4)cc3)[nH]c12 | 787
15 | Cc1cc(N(C)CCN(C)C)nc(Nc2ccc(Br)cc2)n1 | 801
16 | CCNc1cc(C(=O)N[C@@H](Cc2ccccc2)[C@H](O)CNC2CCC(C)(C)C2)cc(N2CCCCS2(=O)=O)c1 (some centres not stated) | 138
17 | CCCCCCCCCc1c(C)[nH]c2ccccc2c1=O | 163
18 | O=C(Nc1cccc(-c2nn3ncccc3c2-c2ccnc(Nc3ccc(N4CCOCC4)cc3)n2)c1)c1c(F)cccc1F | 158
19 | O=C(NCCN1CCCCC1)c1ccc(CNC(=O)c2ccc(O)c(-c3cccc(C(F)(F)F)c3)c2)cc1 | 886
20 | c1ccc(Oc2ccc(Nc3ccnc4cc(-c5cccc(CNCCN6CCOCC6)c5)ccc34)cc2)cc1 | 391
21 | CCN(CC)CCN(Cc1ccc(-c2ccc(C(F)(F)F)cc2)cc1)C(=O)Cn1c(CCC2CCCCC2)nc(=O)c2ccccc21 | 1390
22 | CC(C)CCN1CCC(Oc2ccc(NC(=O)c3cccs3)cc2Cl)CC1 | 341
23 | CN(C)CCCn1cc(C(=O)OC2CC3CCC(C2)N3C)c2cc(-c3ccccc3)ccc21 (configuration not stated) | 837

Row | Compound | XC50 [nM]
24 | COc1ccc2nccc([C@@H](O)CN3CCC(NCCOc4ccncc4)CC3)c2c1 | 690
25 | FC(F)(F)c1ccc2c(NCCCNc3ccnc4cc(C(F)(F)F)ccc34)ccnc2c1 | 31.5
26 | COc1ccc(Cn2cncc2CN(CCC(C)C)C(=O)c2ccc(Cl)nc2Cl)cc1 | 1040
27 | Cc1noc(C)c1CN1CCCN(c2ccc3c(c2)CCN(Cc2ccc(-c4ncc[nH]4)cc2)CC3)CC1 | 864
28 | CC(=O)N[C@H](C(=O)Nc1ccc(-c2cccc(-c3nc4cccc(C)c4[nH]3)c2)cc1)C(C)C | 1090
29 | NCCCNc1nccc(N2CCc3ncnc(Nc4ccc(OCc5cccc(F)c5)c(Cl)c4)c3C2)n1 | 832
30 | COc1ccc(NC(=O)N2CCCN(CCCCCNC(=O)/C=C/c3ccc(C(F)(F)F)cc3)CC2)cc1Cl | 980
31 | COc1ccc2nc(N3CCN(C(=O)OC(C)(C)C)CC3)nc(NCCCc3ccccc3)c2c1 | 687
32 | CCN(CC)CCNC(=O)/C(=C/C=C/c1cc2cc(Cl)c(Cl)cc2[nH]1)OC | 927
33 | CC(CN1CCN(C)CC1)C(=O)Nc1ccc(-c2cccc(-c3nc4ccccc4[nH]3)c2)cc1 (configuration not stated) | 566
34 | CCc1c(CCNCC/C=C/CCNCCc2ccc(OC)c(OC)c2CC)ccc(OC)c1OC | 771
35 | NC1CCCN(Cc2cccc(-c3ccc(-c4nc5ccccc5[nH]4)s3)c2)C1 (configuration not stated) | 585
36 | CCCCCC(C)(C)NC[C@@H](O)[C@H](Cc1ccccc1)NC(=O)c1cc(NCC)cc(N2CCCC2=O)c1 | 674
37 | CCc1ccc(N2C(=O)C3C(Cc4ccc(OC(C)(C)C)cc4)NC4(C(=O)N(Cc5ccccc5)c5ccc(F)cc54)C3C2=O)cc1 (configuration not stated) | 800
38 | C=C[C@H]1CN2CC[C@H]1C[C@H]2[C@H](O)c1cc(-c2ccc(Cl)cc2)nc2ccc(OC)cc12 | 30.3
39 | CCCCN1CCCC[C@H]1[C@@H](O)c1ccnc2ccc(OCC)cc12 | 773
40 | CC1(C)Cc2c(oc3ncn(CCn4cnc5oc6c(c5c4=N)CC(C)(C)SC6)c(=N)c23)CS1 | 719
41 | c1ccc(Cn2nnnc2-c2cccc(Nc3ccnc4cc(-c5nccs5)ccc34)c2)cc1 | 826
42 | CN(Cc1cccc(O)c1)C1CCN(c2cc(NC(=O)c3ccc(F)cc3)ccn2)C1 (configuration not stated) | 1150
43 | CN(C)CCOc1cc(NC(=O)Nc2ccc(-c3ccncc3)c3ccccc23)ccc1I | 777
44 | CC(C)CNCc1ccc(-c2ccc(CN(CCCN3CCN(C)CC3)C(=O)/C=C/c3ccccc3)cc2)cc1 | 917
45 | Cc1c(Cl)cccc1S(=O)(=O)N1CCCCC(c2ccc(C(F)(F)F)cc2)=N1 | 788
46 | Fc1cccc(COc2ccc(Nc3ncnc4ccc(C#C[C@H]5CCCN5)cc34)cc2Cl)c1 | 882

Row | Compound | XC50 [nM]
47 | c1cc(CN2CCN(c3ccncc3)CC2)cc(-c2cccc(-c3nc4ccccc4[nH]3)c2)c1 | 126
48 | Cc1[nH]c2cc(Cl)ccc2c1C1=CCN(CCCCC2(C)C(=O)Nc3c(F)cccc32)CC1 (configuration not stated) | 843
49 | N#Cc1ccc(C(=O)NC2CCN(CCCCCNC(=O)/C=C/c3ccc(Cl)c(Cl)c3)CC2)cc1 | 836
50 | O=C(O)c1ccc2nc(-c3ccc(-c4ccccc4)cc3)n(C3CCN(Cc4ccc(-c5ncc[nH]5)cc4)CC3)c2c1 | 1730
51 | Cc1ccccc1N1CCN(c2ncc(C(=O)NC3CC3)cc2Cl)CC1 | 628
52 | O=C(Nc1ccc2ccccc2n1)c1ccccc1-c1ccccc1 | 438
53 | COc1ccc(-c2ccc(S(=O)(=O)Nc3cc4c(cc3OC(C)C)CCNCC4)cc2)cc1 | 969
54 | Cc1ccc(NC(=O)C(C)Sc2nnc(-c3ccccc3Br)[nH]2)cc1 (configuration not stated) | 1090
55 | O=C(/C=C/c1ccc(F)cc1)NC1CCC(CCN2CCc3ccc(-n4cccn4)cc3CC2)CC1 (configuration not stated) | 1440
56 | O=[N+]([O-])c1cccc(CNC2CCN(Cc3ccc4ccccc4c3)CC2)c1 | 764
57 | COC(=O)c1cccc(CNCc2ccc(-c3ccc(-c4nc5cccc(C)c5[nH]4)cc3)cc2)c1 | 283
58 | CCc1nnc2sc(-c3cccc(NC(=O)c4ccc(C)c([N+](=O)[O-])c4)c3)nn12 | 1410
59 | CS(=O)(=O)N1CC2(CCN(CCC(NC(=O)Nc3ccccc3)c3ccc(Cl)c(Cl)c3)CC2)c2ccccc21 (configuration not stated) | 823
60 | Cc1ccc(CN2CCCN(Cc3cccc(NC(=O)c4ccc(-c5ccccc5)cc4)c3)CC2)cc1C | 1250
61 | CCCCc1cc(NCc2ccncc2)nc(Nc2ccc(OC)cc2)n1 | 1060
62 | Cc1sc(N2CCN(C)CC2)nc1C(=O)Nc1ccc(F)cc1C(F)(F)F | 1070
63 | NC(=O)c1ccc(C(=O)Nc2cccc(-c3csc(-c4nc5ccccc5[nH]4)c3)c2)cc1 | 351
64 | CS(=O)(=O)c1cccc(-c2ccc3oc(C(N)=O)c(NC(=O)c4cccs4)c3c2)c1 | 589
65 | CC(C)N1CCC(N(Cc2ccc(-c3ccc(Cl)cc3)cc2)C(=O)Cn2c(CCc3cccc(F)c3F)cc(=O)c3ccccc32)CC1 | 929
66 | Cc1ccc(NC(=O)c2cc(Br)cc(N3CCCN(C)CC3)c2)cc1F | 1340
67 | CCn1c(-c2nonc2N)nc2c(-c3cccc(NC(=O)Nc4cccc(Cl)c4)c3)ncc(OCCCN)c21 | 941
